Results from patent US9266922B2, “Antigen peptide and uses thereof” (priority 2011, dated 2016).
Like-named read-outs stand apart in the source and are kept apart here. Residues, ends and D or L forms follow the SMILES beside them.

What was measured:
HLA-A*0201 [1] = biological target: T1, HLA-A*0201 (Homo sapiens, UniProt P04439, D140Y/D185E/D98H/E176V/E277Q/G131W/G231S/I119V/I121R/I166T/I218V/L300P/L318F/N151K/N90K/P208A/P217A/Q86G/Q94H/R138H/R169H/T345S); experiment: iTOPIA EDS MHC peptide binding assay; conditions: HLA-A*0201 monomer, relative to positive control peptide, 21° C. for 18 h
From the text: MHC peptide binding assay using iTOPIA EDS
Microtiter 96 well plates containing HLA class I MHC monomer loaded with the human β2-microglobulin and a “placeholder” peptide were used to evaluate peptide binding, affinity, and off-rate.
The 502 nectin4 nonapeptides were first evaluated for their ability to bind to each MHC molecule in the peptide binding assay. In this assay, the placeholder peptides were stripped from the MHC class I monomer complexes coated on plastic, which leaves the MHC class I heavy chain available as a binding partner for candidate peptides in the presence of human β2-microglobulin.
Peptide binding was performed at 21° C. for 18 h. Revelation was done using an anti HLA-ABC-FITC mAb that binds to refolded MHC complex conformation. The relative fluorescent intensity was read using a fluorimeter (Molecular Devices, SpectraMax Gemini, Sunnyvale, Calif., USA).
Peptides with a binding>30% of the positive control peptide were selected as “binder” and subsequently analyzed for affinity (ED50) and off-rate (T1/2).

HLA-A*0201 [2] = biological target: T1, HLA-A*0201; experiment: biochemical; assay type: binding
HLA-A*0201 [3] = biological target: T1, HLA-A*0201; experiment: iScore calculation (iTOPIA system software); conditions: multiparametric score of binding, off-rate and affinity
[4] = biological target: T2, HLA A*0201 on CEM.T2 cell line (Homo sapiens, UniProt P04439, D140Y/D185E/D98H/E176V/E277Q/G131W/G231S/I119V/I121R/I166T/I218V/L300P/L318F/N151K/N90K/P208A/P217A/Q86G/Q94H/R138H/R169H/T345S); experiment: Cellular binding assay, HLA stabilization on CEM.T2 cells; assay type: cell-based; conditions: 100 μM peptide, 37° C. for 4 h, FACS anti HLA-A2; relative to HBV positive control peptide
T2 construct: This cell line expresses HLA A*0201 but is deficient for TAP transporter; endogenous in cells; host or cells: CEM.T2 (T2) cell line
Experimental: The CEM.T2 cell line (T2) is defective in the processing of proteins for presentation by MHC class 1 molecules. This cell line expresses HLA A*0201 but is deficient for TAP transporter. T2 is classically used to assess the Peptide/HLA-A*0201 Complex Stability[H. W. Nijman et al., 1993]
For HLA-A2*0201 stabilization, T2 cells (2×10^5/well) were incubated in serum-free RPMI (Gibco®-France) with 100 μM of selected peptide, at 37° C. for 4 h. Cells were washed two times with PBS supplemented with 1% BSA and stained with fluorescein isothiocyanate-conjugated anti HLA-A2 (Clone BB7.2) (BD Bioscience Pharmingen-France-) at 4° C. for 45 min. After 3 washes, cells were fixed in PBS supplemented with 2% paraformaldehyde and analyzed by FACS (FACScan, BD Bioscience). The percentage of peptide binding was calculated as follows: % Binding={(MFI peptide sample−MFI Neg control)/(MFI Pos control−MFI Neg control)}×100
Negative control was done without peptide.

[5] = biological target: T2, HLA A*0201 on CEM.T2 cell line; experiment: Cellular dissociation assay on CEM.T2 cells; assay type: cell-based; conditions: after Brefeldin A 1 h and 3 h in serum-free RPMI at 37° C. (4 h)
Experimental: Cellular Dissociation Assay
After HLA-A2*0201 stabilization with peptides at 37° C. for 4 h, T2 cells were incubated for 1 h, in serum-free RPMI containing Brefeldin A (10 μg/ml), an inhibitor of the transport of secretory and lysosomal proteins [G. J. Strous et al., 1993]. After 3 washes, T2 cells were incubated for 3 h in serum-free RPMI at 37° C. Binding was then measured by FACS and after 4 h incubation. Percentage of Residual Binding (% RB) was calculated as follows: […]

HLA-A*0201 [6] = biological target: T1, HLA-A*0201; experiment: F-Score ranking (iTOPIA and CEM T2); conditions: overall ranking by iTOPIA and CEM T2 assays, nectin4 and reference peptides together

Which “% Binding” value (HLA-A*0201 [1]) does the source give for `CC(C)C[C@H](NC(=O)[C@@H](N)CC(C)C)C(=O)N[C@@H](C)C(=O)N[C@@H](CO)C(=O)N[C@@H](Cc1ccccc1)C(=O)N[C@H](C(=O)NCC(=O)N[C@@H](CCCNC(=N)N)C(=O)N[C@@H](CS)C(=O)O)[C@@H](C)O` [Peptide 21] (H-LLASFTGRC-OH; N-terminus and C-terminus assumed) here?
The value was 91%.

And the EC50 (HLA-A*0201 [2]; FIG. 2A, peptide concentration 10^−4 to 10^−9 M, read-out: estimated dose to reach 50% maximal binding (ED50))?
Its EC50 is roughly 100 nM.

And the EC50 (HLA-A*0201 [2]; peptide concentration giving 50% of optimal binding, 10^−4 to 10^−9 M, 21° C. for 18 h, read-out: Affinity (ED50))?
The EC50 was 600 nM.

And the iScore (HLA-A*0201 [3])?
The iScore was 0.727.

And the “CEM.T2 % Binding” value [4]?
Its value is 44%.

And the “CEM.T2 % Residual Binding” value [5]?
The value was 86%.

And the “RANK F-Score” value (HLA-A*0201 [6])?
Its value is 11.
